Data: ChEMBL document CHEMBL4665688, “Discovery of AB680: A Potent and Selective Inhibitor of CD73” (J Med Chem, 2020)

Columns and labels:
5'-nucleotidase [1] = target: T1, 5'-nucleotidase (Homo sapiens, UniProt P21589); assay: Inhibition of human CD73 expressed in CHO cells using AMP as substrate preincubated for 60 mins followed by substrate addition and measured after 60 mins by PiColorLock gold reagent based colorimetric assay; format: cell-based
[2] = Clearance in Sprague-Dawley rat at 0.5 mg/kg, iv; format: ADME, organism-based; conditions: in vivo
5'-nucleotidase [3] = target: T1, 5'-nucleotidase; assay: Inhibition of human CD73 using AMP as substrate by Malachite green phosphate reagent-based assay

T1 sequence (P21589 whole entry): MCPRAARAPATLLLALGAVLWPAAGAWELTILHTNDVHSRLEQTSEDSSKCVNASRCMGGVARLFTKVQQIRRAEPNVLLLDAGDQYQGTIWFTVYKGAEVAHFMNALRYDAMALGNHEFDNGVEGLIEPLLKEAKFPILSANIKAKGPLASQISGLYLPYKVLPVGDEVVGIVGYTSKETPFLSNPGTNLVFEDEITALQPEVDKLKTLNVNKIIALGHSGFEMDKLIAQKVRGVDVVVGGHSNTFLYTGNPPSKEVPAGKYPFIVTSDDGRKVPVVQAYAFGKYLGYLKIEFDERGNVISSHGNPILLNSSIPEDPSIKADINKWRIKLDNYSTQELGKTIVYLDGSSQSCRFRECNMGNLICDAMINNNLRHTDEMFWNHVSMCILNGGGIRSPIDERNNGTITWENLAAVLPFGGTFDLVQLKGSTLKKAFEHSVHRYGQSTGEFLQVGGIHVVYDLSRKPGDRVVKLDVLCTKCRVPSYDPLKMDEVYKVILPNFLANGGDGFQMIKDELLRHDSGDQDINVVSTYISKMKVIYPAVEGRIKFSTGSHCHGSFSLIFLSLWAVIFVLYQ

Row | SMILES | IC50 (5'-nucleotidase [1]) [nM] | clearance [2] [mL/min/kg] | IC50 (5'-nucleotidase [3]) [nM]
1 | Nc1nc(Cl)nc2c1ncn2[C@@H]1O[C@H](COP(=O)(O)CP(=O)(O)O)[C@@H](O)[C@@H]1F | 3.4 |  | 
2 | Nc1nc(Cl)nc2c1ncn2[C@@H]1O[C@H](COP(=O)(O)CP(=O)(O)O)[C@@H](O)[C@H]1O | 5 |  | 
3 | C[C@H](Nc1nc(Cl)nc2c1cnn2[C@@H]1O[C@H](COP(=O)(O)CP(=O)(O)O)[C@@H](O)[C@@H]1F)c1ccccc1 | 5.4 | 0.483 | 
4 | CCc1nc(NCc2ccccc2)c2ncn([C@@H]3O[C@H](COP(=O)(O)CP(=O)(O)O)[C@@H](O)[C@H]3O)c2n1 | 12 |  | 
5 | O=P(O)(O)CP(=O)(O)OC[C@H]1O[C@@H](n2cnc3c(NC4CCCC4)nc(C(O)c4ccccc4)nc32)[C@@H](F)[C@@H]1O (stereo partly specified) | 3.3 |  | 
6 | O=P(O)(O)CP(=O)(O)OC[C@H]1O[C@@H](n2cnc3c(NCc4ccncc4)nc(Cl)nc32)[C@@H](F)[C@@H]1O | 3.6 |  | 
7 | C[C@@H](Nc1nc(Cl)nc2c1ncn2[C@@H]1O[C@H](COP(=O)(O)CP(=O)(O)O)[C@@H](O)[C@@H]1F)c1ccccc1 | 1.6 | 4.67 | 
8 | Cc1nc(NCc2ccccc2)c2ncn([C@@H]3O[C@H](COP(=O)(O)CP(=O)(O)O)[C@@H](O)[C@@H]3F)c2n1 | 4 |  | 
9 | O=P(O)(O)CP(=O)(O)OC[C@H]1O[C@@H](n2cnc3c(NCc4ccccc4)nc(C(F)(F)F)nc32)[C@@H](F)[C@@H]1O | 18 |  | 
10 | CC(C)Nc1nc(Cl)nc2c1ncn2[C@@H]1O[C@H](COP(=O)(O)CP(=O)(O)O)[C@@H](O)[C@@H]1F | 3.6 |  | 
11 | CNc1nc(NCc2ccccc2)c2ncn([C@@H]3O[C@H](COP(=O)(O)CP(=O)(O)O)[C@@H](O)[C@H]3O)c2n1 | 5 |  | 
12 | O=P(O)(O)CP(=O)(O)OC[C@H]1O[C@@H](n2ncc3c(NCc4ccccc4)nc(Cl)nc32)[C@@H](F)[C@@H]1O | 5.9 |  | 
13 | CCNc1nc(Cl)nc2c1ncn2[C@@H]1O[C@H](COP(=O)(O)CP(=O)(O)O)[C@@H](O)[C@@H]1F | 5 |  | 
14 | C#Cc1nc(NCc2ccccc2)c2ncn([C@@H]3O[C@H](COP(=O)(O)CP(=O)(O)O)[C@@H](O)[C@@H]3F)c2n1 | 2 |  | 
15 | O=P(O)(O)CP(=O)(O)OC[C@H]1O[C@@H](n2cnc3c(NCc4ccccc4)nc(CCc4ccccc4)nc32)[C@@H](F)[C@@H]1O | 18 |  | 
16 | CNc1nc(Cl)nc2c1ncn2[C@@H]1O[C@H](COP(=O)(O)CP(=O)(O)O)[C@@H](O)[C@@H]1F | 12 |  | 
17 | O=P(O)(O)CP(=O)(O)OC[C@H]1O[C@@H](n2cnc3c(NCc4ccccc4)nc(N4CCCC4)nc32)[C@H](O)[C@@H]1O | 48 |  | 
18 | O=P(O)(O)CP(=O)(O)OC[C@H]1O[C@@H](n2cnc3c(NCc4ccccc4)nc(Cc4ccccc4)nc32)[C@@H](F)[C@@H]1O | 1.5 |  | 
19 | O=P(O)(O)CP(=O)(O)OC[C@H]1O[C@@H](n2cnc3c(NC4CC4)nc(Cl)nc32)[C@H](O)[C@@H]1O | 1.7 |  | 
20 | O=P(O)(O)CP(=O)(O)OC[C@H]1O[C@@H](n2cnc3c(NC4CCCC4)nc(C(O)C4CCOCC4)nc32)[C@@H](F)[C@@H]1O (stereo partly specified) | 202 |  | 
21 | C[C@H](Nc1nc(Cl)nc2c1ncn2[C@@H]1O[C@H](COP(=O)(O)CP(=O)(O)O)[C@@H](O)[C@@H]1F)c1ccccc1 | 4.1 | 0.35 | 
22 | O=P(O)(O)CP(=O)(O)OC[C@H]1O[C@@H](n2cnc3c(NC4CC4)nc(Cl)nc32)[C@@H](F)[C@@H]1O | 2.6 |  | 
23 | O=P(O)(O)CP(=O)(O)OC[C@H]1O[C@@H](n2cnc3c(NCc4ccccc4Cl)nc(Cl)nc32)[C@@H](F)[C@@H]1O | 4.2 |  | 
24 | C[C@@H](Nc1nc(Cl)nc2c1cnn2[C@@H]1O[C@H](COP(=O)(O)CP(=O)(O)O)[C@@H](O)[C@@H]1F)c1ccccc1 | 2.1 | 9.33 | 
25 | COc1nc(NCc2ccccc2)c2ncn([C@@H]3O[C@H](COP(=O)(O)CP(=O)(O)O)[C@@H](O)[C@H]3O)c2n1 | 2.2 |  | 
26 | O=P(O)(O)CP(=O)(O)OC[C@H]1O[C@@H](n2cnc3c(NCc4ccc(Cl)cc4)nc(Cl)nc32)[C@@H](F)[C@@H]1O | 2.4 |  | 
27 | O=P(O)(O)CP(=O)(O)OC[C@H]1O[C@@H](n2cnc3c(NCc4ccccc4)nc(-c4ccccc4)nc32)[C@@H](F)[C@@H]1O | 10 |  | 
28 | Nc1ncnc2c1ncn2[C@@H]1O[C@H](COP(=O)(O)CP(=O)(O)O)[C@@H](O)[C@H]1F | 18 |  | 
29 | Nc1ncnc2c1ncn2[C@@H]1O[C@H](COP(=O)(O)CP(=O)(O)O)[C@@H](O)[C@H]1O [PHOSPHOMETHYLPHOSPHONIC ACID ADENOSYL ESTER] |  |  | 187

More lines, main results first:

Row | IC50 (5'-nucleotidase [1]) [nM] | clearance [2] [mL/min/kg] | SMILES | IC50 (5'-nucleotidase [3]) [nM]
30 | 0.031 | 0.833 | C[C@H](Nc1nc(Cl)nc2c1cnn2[C@@H]1O[C@H](COP(=O)(O)CP(=O)(O)O)[C@@H](O)[C@H]1O)c1cccc(F)c1 | 
31 | 0.9 |  | O=P(O)(O)CP(=O)(O)OC[C@H]1O[C@@H](n2cnc3c(N4CCCC4)nc(Cl)nc32)[C@@H](F)[C@@H]1O | 
32 | 0.2 |  | O=P(O)(O)CP(=O)(O)OC[C@H]1O[C@@H](n2cnc3c(NC4CCCC4)nc(Cl)nc32)[C@H](O)[C@@H]1O | 
33 | 0.058 | 2.83 | C[C@@H](Nc1nc(Cl)nc2c1cnn2[C@@H]1O[C@H](COP(=O)(O)CP(=O)(O)O)[C@@H](O)[C@H]1O)c1ccccc1 | 
34 | 0.031 | 0.5 | C[C@H](Nc1nc(Cl)nc2c1ccn2[C@@H]1O[C@H](COP(=O)(O)CP(=O)(O)O)[C@@H](O)[C@H]1O)c1ccc(F)cc1 | 
35 | 0.7 |  | CC(C)Nc1nc(Cl)nc2c1ncn2[C@@H]1O[C@H](COP(=O)(O)CP(=O)(O)O)[C@@H](O)[C@H]1O | 
36 | 0.6 |  | COCc1nc(NC2CCCC2)c2ncn([C@@H]3O[C@H](COP(=O)(O)CP(=O)(O)O)[C@@H](O)[C@@H]3F)c2n1 | 
37 | 0.4 | 2.5 | O=P(O)(O)CP(=O)(O)OC[C@H]1O[C@@H](n2cnc3c(NC4CCCC4)nc(Cl)nc32)[C@@H](F)[C@@H]1O | 
38 | 0.027 | 10.5 | O=P(O)(O)CP(=O)(O)OC[C@H]1O[C@@H](n2ncc3c(NC4CCCC4)nc(Cl)nc32)[C@H](O)[C@@H]1O | 
39 | 0.7 |  | C[C@@H](Nc1nc(Cl)nc2c1ncn2[C@@H]1O[C@H](COP(=O)(O)CP(=O)(O)O)[C@@H](O)[C@H]1O)c1ccccc1 | 
40 | 0.12 |  | CN(c1nc(Cl)nc2c1ncn2[C@@H]1O[C@H](COP(=O)(O)CP(=O)(O)O)[C@@H](O)[C@H]1O)C1CCCC1 | 
41 | 1.4 |  | O=P(O)(O)CP(=O)(O)OC[C@H]1O[C@@H](n2cnc3c(NC4CCCC4)nc(C(O)C4CC4)nc32)[C@@H](F)[C@@H]1O (stereo partly specified) | 
42 | 1.1 |  | O=P(O)(O)CP(=O)(O)OC[C@H]1O[C@@H](n2cnc3c(N4Cc5ccccc5C4)nc(Cl)nc32)[C@@H](F)[C@@H]1O | 
43 | 0.15 |  | CN(c1nc(Cl)nc2c1ncn2[C@@H]1O[C@H](COP(=O)(O)CP(=O)(O)O)[C@@H](O)[C@@H]1F)C1CCCC1 | 
44 | 1.3 |  | O=P(O)(O)CP(=O)(O)OC[C@H]1O[C@@H](n2cnc3c(NCc4cccc(Cl)c4)nc(Cl)nc32)[C@@H](F)[C@@H]1O | 
45 | 0.8 |  | O=P(O)(O)CP(=O)(O)OC[C@H]1O[C@@H](n2cnc3c(N[C@H]4CCOC4)nc(Cl)nc32)[C@@H](F)[C@@H]1O | 
46 | 0.15 | 4.5 | O=P(O)(O)CP(=O)(O)OC[C@H]1O[C@@H](n2ncc3c(NC4CCCC4)nc(Cl)nc32)[C@@H](F)[C@@H]1O | 
47 | 0.028 | 0.833 | C[C@H](Nc1nc(Cl)nc2c1ccn2[C@@H]1O[C@H](COP(=O)(O)CP(=O)(O)O)[C@@H](O)[C@H]1O)c1ccccc1F | 
48 | 0.095 |  | C[C@H](Nc1nc(Cl)nc2c1cnn2[C@@H]1O[C@H](COP(=O)(O)CP(=O)(O)O)[C@@H](O)[C@H]1O)c1ccc(F)cc1 | 
49 | 0.7 | 1 | O=P(O)(O)CP(=O)(O)OC[C@H]1O[C@@H](n2cnc3c(NCc4ccccc4)nc(Cl)nc32)[C@@H](F)[C@@H]1O | 
50 | 0.3 |  | C[C@H](Nc1nc(Cl)nc2c1ncn2[C@@H]1O[C@H](COP(=O)(O)CP(=O)(O)O)[C@@H](O)[C@H]1O)c1ccccc1 | 
51 | 0.07 | 0.667 | C[C@H](Nc1nc(Cl)nc2c1cnn2[C@@H]1O[C@H](COP(=O)(O)CP(=O)(O)O)[C@@H](O)[C@H]1O)c1ccccc1F | 
52 | 0.3 |  | O=P(O)(O)CP(=O)(O)OC[C@H]1O[C@@H](n2cnc3c(NCc4ccccc4)nc(Cl)nc32)[C@H](O)[C@@H]1O | 
53 | 0.052 | 3.33 | O=P(O)(O)CP(=O)(O)OC[C@H]1O[C@@H](n2ncc3c(NCc4ccccc4)nc(Cl)nc32)[C@H](O)[C@@H]1O | 
54 | 1.3 |  | O=P(O)(O)CP(=O)(O)OC[C@H]1O[C@@H](n2cnc3c(OCc4ccccc4)nc(Cl)nc32)[C@@H](F)[C@@H]1O | 
55 | 1.3 |  | Cc1nc(NCc2ccccc2)c2ncn([C@@H]3O[C@H](COP(=O)(O)CP(=O)(O)O)[C@@H](O)[C@H]3O)c2n1 | 
56 | 0.032 | 0.667 | C[C@H](Nc1nc(Cl)nc2c1ccn2[C@@H]1O[C@H](COP(=O)(O)CP(=O)(O)O)[C@@H](O)[C@H]1O)c1cccc(F)c1 | 
